Measurements published in PMC11231141, “Ube3a unsilencer for the potential treatment of Angelman syndrome” (Nature Communications, 2024).
Read-outs that look alike come from different tables or passages of the source.

Experiments:
[1] = tested on: Snord115, Dlg2, Nrxn3, Malat1; test: quantitative RT-PCR of long genes in cultured mouse neurons; type: cell-based; settings: 1 µM (S)-PHA533533 or 0.3 µM topotecan, 72 h, vs DMSO
Source text: (§1) […]. […] […]. […] […]. […] […].

Ube3a mRNA = test: quantitative RT-PCR of Ube3a mRNA in wild-type primary neurons; type: cell-based, mouse
Protocol: from the paternal allele in mouse wild-type primary neurons. Primar y cortical neurons derived from wild-type (WT) mice were treated either with 0.1% DMSO as a vehicle, 1 µM ( S)-P HA53 35 33 , or 0.3 µ M to po te can for 72 hours at DIV7. Following the treatment, the relative quantity of ( a) Ube3a […]
determined through western blotting, with the data averaged across three individual experiments, depicted in (c). All data were normalized to GAPDH/Gapdh expression, log- transformed, mean-centered, and autoscaled for statistical analysis (n = 4 experiments fo r R T-PCR, and n = 3 for western blot; me a n ± SE M , o n e -way ANOVA followed by Dunnett ’s post hoc test, ** p < 0.01, *** p < 0.001, **** p < 0.0001). µM – micromolar; DMSO – dimethyl sulfoxide; kDA – kilodalton; Norm. – […]
(1 picture or pasted object on this page, not shown here)

paternal UBE3A-YFP = paternal UBE3A-YFP western blot after ASO-mediated knockdown of candidate targets; type: cell-based, mouse; settings: for unsilencing of paternal Ube3a after ASO-mediated knockdown of TOP1: 10 µM ASO at DIV5, 1 µM (S)-PHA533533 or 0.3 µM topotecan 72 h from DIV7
Protocol: . […] Scrambled ASO together with DMSO treatment were used as controls for any non-specific effects.
The addition of TOP1 catalyzes supercoiled DNA substrate (lane 1) into slower migrating relaxed DNA (lane 2). […] . Following the treatment, the relative quantities of (h) Snord115, (i) Dlg2, (j) Nrxn3, (k) Malat1, (l) Pantr1, and (m) Airn transcripts were determined by quantitative RT-PCR (n = 4 experiments; mean ± SEM).
2’ MOE gapmer antisense oligonucleotides (ASOs) designed to target mouse Cdk2 sequence […], Cdk5 sequence […], Top1 sequence […], and scrambled […] sequence as a negative control (Integrated DNA Technologies) were formulated in water and added to cultured cortical neurons grown on 6-well plates at DIV5 at a final concentration of 10 μM. Neurons were further cultured and treated at DIV7 with vehicle (0.1% DMSO) or the indicated compounds for 72 h. For western blot analysis, neurons were washed once with PBS and then lysed using RIPA buffer (50 mM Tris-HCl pH 8.0, 150 mM NaCl, 1% NP−40, 0.5% Na-deoxycholate, 0.5% SDS) and protease inhibitor cocktail (P8340, MilliporeSigma) on ice.

TOP1 = biological target: T1, TOP1 (Homo sapiens, UniProt P11387); test: TOP1-mediated DNA relaxation assay; type: biochemical; settings: 3 μM topotecan; increasing concentrations of (S)- and (R)-PHA533533; vs DMSO
T1 construct: purchased TopoGEN
T1 sequence (P11387 1-765): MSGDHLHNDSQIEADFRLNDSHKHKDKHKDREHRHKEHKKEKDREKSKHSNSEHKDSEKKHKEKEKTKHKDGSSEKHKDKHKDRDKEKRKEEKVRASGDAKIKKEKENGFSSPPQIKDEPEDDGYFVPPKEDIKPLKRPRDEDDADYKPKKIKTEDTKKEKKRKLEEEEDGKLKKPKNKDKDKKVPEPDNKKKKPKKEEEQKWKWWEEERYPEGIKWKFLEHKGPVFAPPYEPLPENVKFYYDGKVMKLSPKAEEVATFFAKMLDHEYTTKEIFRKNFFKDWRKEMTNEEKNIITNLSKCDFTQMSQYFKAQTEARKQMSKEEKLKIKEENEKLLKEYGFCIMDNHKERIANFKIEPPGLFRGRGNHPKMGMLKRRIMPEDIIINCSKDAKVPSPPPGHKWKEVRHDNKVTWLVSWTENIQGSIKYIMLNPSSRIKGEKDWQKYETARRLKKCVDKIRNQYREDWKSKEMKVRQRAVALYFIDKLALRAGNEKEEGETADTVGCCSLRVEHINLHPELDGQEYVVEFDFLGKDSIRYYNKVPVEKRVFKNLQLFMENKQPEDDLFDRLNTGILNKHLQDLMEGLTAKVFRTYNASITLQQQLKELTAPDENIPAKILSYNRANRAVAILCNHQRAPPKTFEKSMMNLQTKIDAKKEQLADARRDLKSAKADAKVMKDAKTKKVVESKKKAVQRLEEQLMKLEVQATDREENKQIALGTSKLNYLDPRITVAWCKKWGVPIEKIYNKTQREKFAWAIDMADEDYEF
Source text: as §1
The Pfizer chemogenetic library and PHA533533 derivatives were provided by the Compound Transfer Program (CTP) at Pfizer. Topotecan hydrochloride salt was purchased from Cayman Chemicals (Item No. 14129). […] […]. The Human Topoisomerase I Assay Kit was purchased from TopoGEN and performed according to the manufacturer’s protocols.

Structure (SMILES) | expression of long genes (Snord115, Dlg2, Nrxn3, Malat1) [1] | Ube3a mRNA levels in WT neurons (Ube3a mRNA) | unsilencing of paternal UBE3A-YFP after ASO-mediated knockdown of CDK5 (paternal UBE3A-YFP; 10 µM ASO at DIV5, 1 µM (S)-PHA533533 72 h from DIV7) | unsilencing of paternal Ube3a after ASO-mediated knockdown of TOP1 (paternal UBE3A-YFP) | inhibition of TOP1 catalytic activity to relax supercoiled DNA (TOP1) | Ube3a mRNA levels in WT neurons (Ube3a mRNA; 1 µM (S)-PHA533533 or 0.3 µM topotecan, 72 h at DIV7)
C[C@H](C(=O)Nc1cc(C2CC2)[nH]n1)c1ccc(N2CCCC2=O)cc1 [(S)-PHA533533] | significantly reduced the expression of only Snord115 | significantly increased | nor did it occlude the unsilencing | did not affect | had no effect on the TOP1 activity | –
CC[C@@]1(O)C(=O)OCc2c1cc1n(c2=O)Cc2cc3c(CN(C)C)c(O)ccc3nc2-1 [Topotecan, reference compound] | significantly impaired the expression of all the measured long genes | – | – | almost completely occluded | clearly inhibited TOP1 catalytic activity | significantly increased
